Source: patent US20240343762A1, “USE OF PROTON PUMP MODULATOR IN PREPARING REAGENT” (SHANGHAI QUIETD BIOTECHNOLOGY CO. LTD., priority 2021, published 2024)

Experiments:
[1] = target: ATP6V1B2 (Mus musculus, UniProt P62814); experiment: Immunoprecipitation from hippocampus of mice given biotin-labeled polypeptide, with SDS-PAGE and protein mass spectrum identification; format: binding; design: from tissue; host or cells: mouse brain hippocampus; conditions: biotin-labeled polypeptide 6.25 mg/kg through veins, hippocampus collected after 4 h, compared with disordered control QD201
ATP6V1B2, sequence (P62814 whole entry): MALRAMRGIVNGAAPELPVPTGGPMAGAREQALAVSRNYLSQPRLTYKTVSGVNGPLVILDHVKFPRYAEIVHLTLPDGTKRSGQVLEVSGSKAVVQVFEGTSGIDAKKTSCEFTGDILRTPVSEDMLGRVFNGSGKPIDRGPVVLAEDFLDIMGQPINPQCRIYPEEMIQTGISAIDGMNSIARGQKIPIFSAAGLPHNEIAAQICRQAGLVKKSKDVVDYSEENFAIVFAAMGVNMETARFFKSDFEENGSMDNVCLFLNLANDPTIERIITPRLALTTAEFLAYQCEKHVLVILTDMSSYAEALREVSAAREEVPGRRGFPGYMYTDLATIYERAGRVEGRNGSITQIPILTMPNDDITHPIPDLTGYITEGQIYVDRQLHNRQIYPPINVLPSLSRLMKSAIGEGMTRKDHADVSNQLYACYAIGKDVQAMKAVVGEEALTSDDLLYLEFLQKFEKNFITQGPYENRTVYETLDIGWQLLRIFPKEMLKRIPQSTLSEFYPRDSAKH
Protocol: (1) Polypeptide QD202 was synthesized according to the amino acid sequence as set forth in SEQ ID NO. 1, and a biotin label was added at the […] of the polypeptide; and the amino acid sequence of the QD202 was randomly disorganized, a disordered control QD201 (the amino acid sequence as set forth in SEQ ID NO. 7) was synthesized, and the biotin label was added at the […] of the polypeptide. The polypeptide QD202 and the QD201 were dissolved by PBS, and a storage solution is prepared with the concentration of 500 μM.
(2) The biotin-labeled QD202 and QD201 were respectively feed to 2 C57BL/6 mice of 8 months old through veins at the dosage of 6.25 mg/kg. The mice were anesthetized after 4 h, brain hippocampus tissues were collected, a lysis buffer solution was added, the tissues were crushed by mechanical grinding, and then supernatant was collected after centrifuging. The biotin antibody and Protein G agarose beads were added into the supernatant for immunoprecipitation, the test steps referred to Using Antibodies: A Laboratory Manual [J]. Science Press, 2002. The proteins were eluted by a protein loading buffer solution. […]

[2] = system: hippocampal CA1 pyramidal neurons; experiment: Whole-cell patch-clamp recording of spontaneous excitatory postsynaptic current (sEPSC) in hippocampus brain slice; format: cell-based, mouse; conditions: sEPSC at -70 mV, perfusion for 5 min; 5 μM in Embodiment 3
Protocol: 0.1-0.15 ml of 20% ethyl carbamate was injected into the abdominal cavity of a C57 mouse of 2 to 3 months old for anesthesia; a head was quickly cut, and brain tissues were stripped and put into artificial cerebrospinal fluid (ACSF) ice-water mixed liquid into which mixed gas (95% O2 and 5% CO2) was introduced in advance, and stood for 2 min; the ACSF included the following components: […] of NaCl, […] of KCl, 0.12 mM of NaH2PO4, 0.25 mM of CaCl2), 0.12 mM of MgCl2, 25 mM of NaHCO3 and 11 mM of glucose. A hippocampus coronal brain slice of 350 μm was cut by a vibration slicer. The hippocampus coronal brain slice was placed into the ACSF at room temperature for more than 30 min for recovery, and then the brain slice was put into a record slot; continuous perfusing was performed at a speed of 2 to 2.5 ml/min by the ACSF into which the mixed gas was introduced; blind-binding sealing was performed on hippocampus CA1 pyramidal neuron under an Olympic BX51 upright microscope; whole-cell patch-clamp was performed by an Axon700B amplifier and a 1550B digital-to-analog converter; spontaneous excitatory postsynaptic current (sEPSC) of the pyramidal neuron was recorded by a voltage clamp under the clamp voltage of −70 mV; after recording for 5 min, synthetic polypeptides such as 5 μM QD202 or QD202 N′-1, C′-1 and C′-2 for 5 min; and then perfusing and flushing were performed for 10 min by the ACSF. The recorded data was analyzed by Minianalysis software. […]

QD202: polypeptide synthesized according to the amino acid sequence as set forth in SEQ ID NO. 1 (YGRKKRRQRRRSPVDVVCS; QD202)
protein specifically bound to the polypeptide (mass spectrum identification) [1]: protein specifically bound to QD202 was ATP6V1B2
excitatory postsynaptic current amplitude [2]: no influence
release frequency of excitatory postsynaptic current [2]: increasing the release frequency
spontaneous excitatory synaptic transmitter release of hippocampal CA1 neurons [2]: can increase the spontaneous excitatory synaptic transmitter release
